How the values were obtained:
[1] = Compound induced cellular toxicity in HepG2 cells, ATPlite 1Step; type: cell-based; details: human, three days exposure, 50% reduction of total ATP vs no drug controls
Method: At day 3, post seeding cells are treated with ATPlite 1Step according to the manufacturer's instructions.

HBV in 2.2.15 cells = test: 2.2.15 cells: viral product in cell lysates quantified via quantitative real time PCR; type: cell-based, hepatitis B virus (HBV); details: Hepatitis B virus, 120 h, day 5 post treatment, 50% reduction of viral product vs no drug controls, readout (qPCR, HBsAg or HBeAg) not specified for the column
In short: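 HBV product was measured at day 5 by lysate qPCR or by supernatant HBsAg/HBeAg ELISA, in 2.2.15 cells seeded at 35,000/well and exposed to 5-fold compound dilution series (0.5% DMSO). EC50 is 50% reduction of viral product relative to untreated controls.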

| SMILES | CC50 at 3 days [1] [nM] | EC50 (HBV in 2.2.15 cells) [nM] |
| --- | --- | --- |
| CC(C)[C@@H]1Cn2nc(C3CC3)c(-c3ccc(O)cc3)c2-c2cc(=O)c(C(=O)O)cn21 [Example 143, (R)-2-cyclopropyl-1-(4-hydroxyphenyl)-6-isopropyl-10-oxo-5,6-dihydro-10H-pyrazolo[1,5-a]pyrido[2,1-c]pyrazine-9-carboxylic acid] | > 25000 | < 100 |
| CC(C)COc1ccccc1-c1cc2n(n1)C[C@@H](C(C)(C)C)n1cc(C(=O)O)c(=O)cc1-2 [Example 80, (R)-6-(tert-butyl)-2-(2-isobutoxyphenyl)-10-oxo-5,6-dihydro-10H-pyrazolo[1,5-a]pyrido[2,2-c]pyrazine-12-carboxylic acid] | > 25000 | < 100 |
| CC(C)(C)[C@@H]1Cn2nc(-c3ccccc3C#N)cc2-c2cc(=O)c(C(=O)O)cn21 [Example 40, (R)-6-(tert-butyl)-2-(2-cyanophenyl)-10-oxo-5,6-dihydro-10H-pyrazolo[1,5-a]pyrido[2,2-c]pyrazine-12-carboxylic acid] | > 25000 | < 100 |
| CC(C)(C)[C@@H]1Cn2nc(-c3ccc(F)cc3)c(-c3cccc(F)c3)c2-c2cc(=O)c(C(=O)O)cn21 [Example 168, (R)-6-(tert-butyl)-1-(3-fluorophenyl)-2-(4-fluorophenyl)-10-oxo-5,6-dihydro-10H-pyrazolo[1,5-a]pyrido[2,1-c]pyrazine-9-carboxylic acid] | 10000 to 25000 | < 100 |
| CC(C)(C)[C@@H]1Cn2nc(-c3cccc4c3OCC4)cc2-c2cc(=O)c(C(=O)O)cn21 [Example 59, (R)-6-(tert-butyl)-2-(2,3-dihydrobenzofuran-7-yl)-10-oxo-5,6-dihydro-10H-pyrazolo[1,5-a]pyrido[2,2-c]pyrazine-12-carboxylic acid] | > 25000 | < 100 |
| CC(C)(C)[C@@H]1Cn2nc(-c3ccc(F)cc3)c(F)c2-c2cc(=O)c(C(=O)O)cn21 [Example 93, (R)-6-(tert-butyl)-1-fluoro-2-(4-fluorophenyl)-10-oxo-5,6-dihydro-10H-pyrazolo[1,5-a]pyrido[2,1-c]pyrazine-9-carboxylic acid] | > 25000 | < 100 |
| COc1cccc(-c2cnn3c2-c2cc(=O)c(C(=O)O)cn2[C@H](C(C)(C)C)C3)c1 [Example 113, (R)-6-(tert-butyl)-1-(3-methoxyphenyl)-10-oxo-5,6-dihydro-10H-pyrazolo[1,5-a]pyrido[2,1-c]pyrazine-9-carboxylic acid] | > 25000 | < 100 |
| COc1cccc(-c2c(C3CC3)nn3c2-c2cc(=O)c(C(=O)O)cn2[C@H](C(C)(C)C)C3)c1 [Example 157, (R)-6-(tert-butyl)-2-cyclopropyl-1-(3-methoxyphenyl)-10-oxo-5,6-dihydro-10H-pyrazolo[1,5-a]pyrido[2,1-c]pyrazine-9-carboxylic acid] | > 25000 | < 100 |
| COc1ccc(-c2nn3c(c2-c2ccc(OC)cc2)-c2cc(=O)c(C(=O)O)cn2[C@H](C(C)(C)C)C3)cc1 [Example 98, (R)-6-(tert-butyl)-1,2-bis(4-methoxyphenyl)-10-oxo-5,6-dihydro-10H-pyrazolo[1,5-a]pyrido[2,1-c]pyrazine-9-carboxylic acid] | > 25000 | < 100 |
| CC(C)(C)[C@@H]1Cn2nc(-c3ccoc3)cc2-c2cc(=O)c(C(=O)O)cn21 [Example 4, (R)-6-(tert-butyl)-2-(furan-3-yl)-10-oxo-5,6-dihydro-10H-pyrazolo[1,5-a]pyrido[2,2-c]pyrazine-12-carboxylic acid] | > 25000 | 200 to 1000 |
| COc1ccccc1-c1cnn2c1-c1cc(=O)c(C(=O)O)cn1[C@H](C(C)(C)C)C2 [Example 112, (R)-6-(tert-butyl)-1-(2-methoxyphenyl)-10-oxo-5,6-dihydro-10H-pyrazolo[1,5-a]pyrido[2,1-c]pyrazine-9-carboxylic acid] | > 25000 | < 100 |
| C[C@@H]1Cn2nc(-c3ccccc3)c(-c3ccccc3)c2-c2cc(=O)c(C(=O)O)cn21 [Example 203, (R)-6-methyl-10-oxo-1,2-diphenyl-5,6-dihydro-10H-pyrazolo[1,5-a]pyrido[2,1-c]pyrazine-9-carboxylic acid] | > 25000 | < 100 |
| CC(C)[C@@H]1Cn2nc(C3CC3)c(-c3ccccc3)c2-c2cc(=O)c(C(=O)O)cn21 [Example 130, (R)-2-cyclopropyl-6-isopropyl-10-oxo-1-phenyl-5,6-dihydro-10H-pyrazolo[1,5-a]pyrido[2,1-c]pyrazine-9-carboxylic acid] | > 25000 | < 100 |
| CC(C)(C)[C@@H]1Cn2nc(C3CC3)c(-c3cccc(F)c3)c2-c2cc(=O)c(C(=O)O)cn21 [Example 147, (R)-6-(tert-butyl)-2-cyclopropyl-1-(3-fluorophenyl)-10-oxo-5,6-dihydro-10H-pyrazolo[1,5-a]pyrido[2,1-c]pyrazine-9-carboxylic acid] | > 25000 | < 100 |
| CC(C)(C)[C@@H]1Cn2nc(C3CC3)c(-c3ccccc3O)c2-c2cc(=O)c(C(=O)O)cn21 [Example 165, (R)-6-(tert-butyl)-2-cyclopropyl-1-(2-hydroxyphenyl)-10-oxo-5,6-dihydro-10H-pyrazolo[1,5-a]pyrido[2,1-c]pyrazine-9-carboxylic acid] | > 25000 | < 100 |
| CC(C)(C)[C@@H]1Cn2nc(-c3ccc(C(F)(F)F)cc3)cc2-c2cc(=O)c(C(=O)O)cn21 [Example 9, (R)-6-(tert-butyl)-10-oxo-2-(4-(trifluoromethyl)phenyl)-5,6-dihydro-10H-pyrazolo[1,5-a]pyrido[2,2-c]pyrazine-12-carboxylic acid] | > 25000 | < 100 |
| CC(C)c1ccccc1-c1cc2n(n1)C[C@@H](C(C)(C)C)n1cc(C(=O)O)c(=O)cc1-2 [Example 83, (R)-6-(tert-butyl)-2-(2-isopropylphenyl)-10-oxo-5,6-dihydro-10H-pyrazolo[1,5-a]pyrido[2,2-c]pyrazine-12-carboxylic acid] | > 25000 | 200 to 1000 |
| CC(C)(C)[C@@H]1Cn2ncc(-c3ccccc3F)c2-c2cc(=O)c(C(=O)O)cn21 [Example 104, (R)-6-(tert-butyl)-1-(2-fluorophenyl)-10-oxo-5,6-dihydro-10H-pyrazolo[1,5-a]pyrido[2,1-c]pyrazine-9-carboxylic acid] | 10000 to 25000 | < 100 |
| CC(C)(C)[C@@H]1Cn2nc(-c3c(F)cccc3C(N)=O)cc2-c2cc(=O)c(C(=O)O)cn21 [Example 53, (R)-6-(tert-butyl)-2-(2-carbamoyl-6-fluorophenyl)-10-oxo-5,6-dihydro-10H-pyrazolo[1,5-a]pyrido[2,2-c]pyrazine-12-carboxylic acid] | > 25000 | 200 to 1000 |
| Cc1ccc(-c2c(C3CC3)nn3c2-c2cc(=O)c(C(=O)O)cn2[C@H](C(C)(C)C)C3)cc1 [Example 154, (R)-6-(tert-butyl)-2-cyclopropyl-10-oxo-1-(p-tolyl)-5,6-dihydro-10H-pyrazolo[1,5-a]pyrido[2,1-c]pyrazine-9-carboxylic acid] | > 25000 | < 100 |
| CC(C)[C@@H]1Cn2nc(C3CC3)c(-c3cccc(O)c3)c2-c2cc(=O)c(C(=O)O)cn21 [Example 142, (R)-2-cyclopropyl-1-(3-hydroxyphenyl)-6-isopropyl-10-oxo-5,6-dihydro-10H-pyrazolo[1,5-a]pyrido[2,1-c]pyrazine-9-carboxylic acid] | > 25000 | < 100 |
| CC(C)[C@@H]1Cn2nc(-c3ccc(O)cc3)c(-c3ccc(O)cc3)c2-c2cc(=O)c(C(=O)O)cn21 [Example 172, (R)-1,2-bis(4-hydroxyphenyl)-6-isopropyl-10-oxo-5,6-dihydro-10H-pyrazolo[1,5-a]pyrido[2,1-c]pyrazine-9-carboxylic acid] | > 25000 | < 100 |
| CC(C)(C)[C@@H]1Cn2nc(-c3ccccc3OCC3CC3)cc2-c2cc(=O)c(C(=O)O)cn21 [Example 75, (R)-6-(tert-butyl)-2-(2-(cyclopropylmethoxy)phenyl)-10-oxo-5,6-dihydro-10H-pyrazolo[1,5-a]pyrido[2,2-c]pyrazine-12-carboxylic acid] | > 25000 | < 100 |
| COc1cccc(-c2cc3n(n2)C[C@@H](C(C)(C)C)n2cc(C(=O)O)c(=O)cc2-3)c1C#N [Example 45, (R)-6-(tert-butyl)-2-(2-cyano-3-methoxyphenyl)-10-oxo-5,6-dihydro-10H-pyrazolo[1,5-a]pyrido[2,2-c]pyrazine-12-carboxylic acid] | > 25000 | < 100 |
| CC(C)[C@@H]1Cn2nc(C3CC3)c(-c3cccnc3)c2-c2cc(=O)c(C(=O)O)cn21 [Example 140, (R)-2-cyclopropyl-6-isopropyl-10-oxo-1-(pyridin-3-yl)-5,6-dihydro-10H-pyrazolo[1,5-a]pyrido[2,1-c]pyrazine-9-carboxylic acid] | > 25000 | < 100 |
| COc1ccc(OC(F)(F)F)cc1-c1cc2n(n1)C[C@@H](C(C)(C)C)n1cc(C(=O)O)c(=O)cc1-2 [Example 33, (R)-6-(tert-butyl)-2-(2-methoxy-5-(trifluoromethoxy)phenyl)-10-oxo-5,6-dihydro-10H-pyrazolo[1,5-a]pyrido[2,2-c]pyrazine-12-carboxylic acid] | > 25000 | < 100 |
| CC(C)[C@@H]1Cn2nc(-c3cccc(F)c3)c(-c3cccc(F)c3)c2-c2c(F)c(=O)c(C(=O)O)cn21 [Example 188, (R)-11-fluoro-1,2-bis(3-fluorophenyl)-6-isopropyl-10-oxo-5,6-dihydro-10H-pyrazolo[1,5-a]pyrido[2,1-c]pyrazine-9-carboxylic acid] | > 25000 | < 100 |

Reference: patent US12264159B2, “Functionalized heterocycles as antiviral agents” (Enanta Pharmaceuticals, Inc., priority 2018, dated 2025)
